Data taken from US10471139B2, “Toll-like receptor agonists” (The University of Kansas, priority 2013, dated 2019).
Where two headings read alike, the source gives them in different places. Blank lines part the entries; values can stand above or below the molecule they belong to.

Experiments:
[1] = target: T1, human TLR8 (Homo sapiens, UniProt Q9NR97); assay: Human TLR8 reporter gene assay (NF-κB induction), HEK-Blue-8 cells; assay type: cell-based
T1 construct: expressed in transfected cells; host or cells: HEK293 (HEK-Blue-8)
T1 sequence (Q9NR97 27-1041): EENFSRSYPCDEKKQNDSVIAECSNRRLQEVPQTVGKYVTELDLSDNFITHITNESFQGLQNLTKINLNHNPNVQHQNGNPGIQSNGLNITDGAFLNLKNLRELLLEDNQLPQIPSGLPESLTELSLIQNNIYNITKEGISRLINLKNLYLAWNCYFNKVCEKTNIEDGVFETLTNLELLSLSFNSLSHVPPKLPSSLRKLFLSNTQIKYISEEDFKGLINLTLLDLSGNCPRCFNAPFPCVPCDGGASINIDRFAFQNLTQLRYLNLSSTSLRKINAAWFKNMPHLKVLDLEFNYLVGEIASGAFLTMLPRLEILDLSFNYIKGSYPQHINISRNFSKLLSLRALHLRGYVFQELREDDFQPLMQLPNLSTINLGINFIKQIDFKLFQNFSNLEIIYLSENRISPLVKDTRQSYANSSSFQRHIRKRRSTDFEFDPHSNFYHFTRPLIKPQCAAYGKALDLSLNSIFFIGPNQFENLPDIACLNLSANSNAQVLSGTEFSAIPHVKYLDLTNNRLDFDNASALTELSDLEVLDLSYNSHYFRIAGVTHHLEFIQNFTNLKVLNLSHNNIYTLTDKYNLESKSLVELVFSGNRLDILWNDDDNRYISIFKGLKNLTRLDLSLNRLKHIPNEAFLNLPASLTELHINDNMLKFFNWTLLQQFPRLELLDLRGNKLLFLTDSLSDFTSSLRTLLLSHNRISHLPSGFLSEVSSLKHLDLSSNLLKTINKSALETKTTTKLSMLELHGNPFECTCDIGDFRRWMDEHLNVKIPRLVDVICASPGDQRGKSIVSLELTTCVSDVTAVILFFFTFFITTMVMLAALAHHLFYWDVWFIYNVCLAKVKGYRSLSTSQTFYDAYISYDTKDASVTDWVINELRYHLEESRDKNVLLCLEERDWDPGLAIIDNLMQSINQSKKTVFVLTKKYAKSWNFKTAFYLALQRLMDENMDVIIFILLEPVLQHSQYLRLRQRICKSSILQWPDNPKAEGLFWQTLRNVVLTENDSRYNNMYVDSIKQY
Source text: (§1) Human TLR-7/-8 Reporter Gene Assays (NF-κB Induction).
(§2) The induction of NF-κB was quantified using HEK-Blue-7 (hTLR7-specific) and HEK-Blue-8 (hTLR8-specific) cells. HEK293 cells stably co-transfected with human TLR7 or human TLR8, MD2, and secreted alkaline phosphatase (sAP), were maintained in HEK-Blue™ Selection medium containing zeocin and normocin. Stable expression of secreted alkaline phosphatase (sAP) under control of NF-κB/AP-1 promoters is inducible by appropriate TLR agonists, and extracellular sAP in the supernatant is proportional to NF-κB induction.
(§3) HEK293 cells stably co-transfected with the appropriate hTLR (or NOD) and secreted alkaline phosphatase (sAP) were maintained in HEK-Blue™ Selection medium. Stable expression of secreted alkaline phosphatase (sAP) under control of NF-κB/AP-1 promoters is inducible by appropriate TLR/NOD agonists, and extracellular sAP in the supernatant is proportional to NF-κB induction.

[2] = target: T2, human TLR7 (Homo sapiens, UniProt Q9NYK1); assay: Human TLR7 reporter gene assay (NF-κB induction), HEK-Blue-7 cells; assay type: cell-based; settings: for EC50: human TLR7-specific reporter gene assay, Inactive = no activity up to 500 μg/mL, read-out: hTLR7-agonistic Activity (EC50); for TLR7-specific agonistic activity EC50: primary screen
T2 construct: expressed in transfected cells; host or cells: HEK293 (HEK-Blue-7)
T2 sequence (Q9NYK1 27-1049): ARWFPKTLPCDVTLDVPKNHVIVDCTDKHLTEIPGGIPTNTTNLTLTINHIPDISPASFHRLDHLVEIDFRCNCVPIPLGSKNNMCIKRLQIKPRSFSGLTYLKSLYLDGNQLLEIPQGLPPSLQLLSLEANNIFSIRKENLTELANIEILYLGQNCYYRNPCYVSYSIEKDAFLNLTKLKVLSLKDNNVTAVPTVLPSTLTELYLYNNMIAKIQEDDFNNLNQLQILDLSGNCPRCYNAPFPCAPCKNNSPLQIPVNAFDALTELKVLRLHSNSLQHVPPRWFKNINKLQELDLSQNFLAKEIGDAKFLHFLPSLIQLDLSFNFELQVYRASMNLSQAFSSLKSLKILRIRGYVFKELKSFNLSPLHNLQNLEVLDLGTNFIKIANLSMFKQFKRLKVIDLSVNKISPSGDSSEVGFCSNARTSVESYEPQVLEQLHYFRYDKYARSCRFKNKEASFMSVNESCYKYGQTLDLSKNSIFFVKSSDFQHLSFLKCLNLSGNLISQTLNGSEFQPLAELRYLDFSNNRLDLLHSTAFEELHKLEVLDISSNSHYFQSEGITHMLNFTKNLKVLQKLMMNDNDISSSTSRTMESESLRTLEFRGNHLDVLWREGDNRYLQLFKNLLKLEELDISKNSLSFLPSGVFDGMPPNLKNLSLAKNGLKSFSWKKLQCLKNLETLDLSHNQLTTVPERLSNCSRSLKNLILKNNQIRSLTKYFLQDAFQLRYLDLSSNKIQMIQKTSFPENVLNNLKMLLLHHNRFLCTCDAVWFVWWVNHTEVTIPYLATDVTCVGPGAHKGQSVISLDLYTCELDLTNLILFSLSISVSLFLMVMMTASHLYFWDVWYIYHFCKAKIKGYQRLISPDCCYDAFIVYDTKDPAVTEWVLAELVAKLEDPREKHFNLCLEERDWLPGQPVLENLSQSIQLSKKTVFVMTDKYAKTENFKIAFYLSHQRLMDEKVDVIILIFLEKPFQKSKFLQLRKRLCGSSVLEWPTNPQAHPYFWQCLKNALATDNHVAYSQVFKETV
Source text: as §1, §2, §3

[3] = human TLR 8-specific reporter gene assays, read-out: hTLR8 Agonistic Activity (EC50)
[4] = human TLR 8-specific reporter gene assays
[5] = primary screens, read-out: TLR8-agonistic activity EC50

Structure (SMILES): CCCCCn1c(N)nc2c(CC)cccc21 [Compound A31j, 4-Ethyl-1-pentyl-1H-benzo[d]imidazol-2-amine]
- EC50 [1, 3]: 1.65 µM

Structure (SMILES): CCCCC1(O)C(N)=Nc2ccccc21 (stereo not shown) [Compound A5, 2-amino-3-butyl-3H-indol-3-ol]
- hTLR8 Agonistic Activity (EC50) [1, 4]: Inactive
- TLR8-agonistic activity EC50 ([1]; primary screens): inactive

Structure (SMILES): CCCCn1c(N)nc2ccccc21 [Compound A8a, 1-butyl-1H-benz[d]imidazol-2-amine]
- EC50 [1, 3]: 7.3 µM

Structure (SMILES): CCCCCn1c(N)nc2c(C(F)(F)F)cccc21 [Compound A31h, 1-Pentyl-4-(trifluoromethyl)-1H-benzo[d]imidazol-2-amine]
- hTLR8 Agonistic Activity (EC50) [1, 4]: Inactive

Structure (SMILES): CCCCCn1c(N)nc2ccc(C)cc21 [Compound A31c, 6-Methyl-1-pentyl-1H-benzo[d]imidazol-2-amine]
- EC50 [1, 3]: 7.21 µM

Structure (SMILES): CCCCCn1c(N)nc2c(Cl)cccc21 [Compound A31g, 4-Chloro-1-pentyl-1H-benzo[d]imidazol-2-amine]
- hTLR8 Agonistic Activity (EC50) [1, 4]: Inactive

Structure (SMILES): CCCCCn1c(N)nc2c(Br)cccc21 [Compound A31i, 4-Bromo-1-pentyl-1H-benzo[d]imidazol-2-amine]
- hTLR8 Agonistic Activity (EC50) [1, 4]: Inactive

Structure (SMILES): CCCCCn1c(N)nc2c(F)cccc21 [Compound A31f, 4-Fluoro-1-pentyl-1H-benzo[d]imidazol-2-amine]
- hTLR8 Agonistic Activity (EC50) [1, 4]: Inactive

Structure (SMILES): CCCCCn1c(N)nc2c(O)cccc21 [Compound A36, 2-Amino-1-pentyl-1H-benzoimidazol-4-ol]
- EC50 [1, 3]: 5.01 µM

Structure (SMILES): CCCCCn1c(N)nc2c(N)cccc21 [Compound A40, 1-Pentyl-1H-benzoimidazole-2,4-diamine]
- EC50 [1, 3]: 6.6 µM

Structure (SMILES): CCCCCn1c(N)nc2c(N(C)C)cccc21 [Compound A31k, N^4,N^4-demethyl-1-pentyl-1H-benzo[d]imidazole-2,4-diamine]
- EC50 [1, 3]: 7.12 µM

Structure (SMILES): CCCCCn1c(N)nc2c(OC)cccc21 [Compound A31e, 4-Methoxy-1-pentyl-1H-benzo[d]imidazol-2-amine]
- EC50 [1, 5]: 3.74 µM

Structure (SMILES): CCCCCn1c(N)nc2ccncc21 [Compound A27c, 3-Pentyl-3H-imidazo[4,5-c]pyridin-2-amine]
- hTLR8 Agonistic Activity (EC50) [1, 4]: Inactive

Structure (SMILES): CCCCCn1c(N)nc2cc(C)ccc21 [Compound A31b, 5-Methyl-1-pentyl-1H-benzo[d]imidazol-2-amine]
- EC50 [1, 3]: 4.57 µM

Structure (SMILES): CCCCCn1c(N)nc2cnccc21 [Compound A27b, 1-Pentyl-1H-imidazo[4,5-c]pyridin-2-amine]
- hTLR8 Agonistic Activity (EC50) [1, 4]: Inactive

Structure (SMILES): CCCCOC(=O)n1c(N)nc2ccccc21 [Compound A9, butyl 2-amino-1H-benzo[d]imidazole-1-carboxylate]
- hTLR8 Agonistic Activity (EC50) [1, 4]: Inactive
- TLR8-agonistic activity EC50 ([1]; primary screens): completely abrogated activity

Structure (SMILES): CCCCCn1c(N)nc2c([N+](=O)[O-])cccc21 [Compound A39, 4-Nitro-1-pentyl-1H-benzoimidazol-2-ylamine]
- hTLR8 Agonistic Activity (EC50) [1, 4]: Inactive
- TLR8-agonistic activity EC50 ([1]; primary screens): inactive

Structure (SMILES): CCCCCn1c(N)nc2cccnc21 [Compound A27d, 3-Pentyl-3H-imidazo[4,5-b]pyridin-2-amine]
- hTLR8 Agonistic Activity (EC50) [1, 4]: Inactive

Structure (SMILES): CCCCCn1c(N)nc2ncccc21 [Compound A27a, 1-Pentyl-1H-imidazo[4,5-b]pyridin-2-amine]
- hTLR8 Agonistic Activity (EC50) [1, 4]: Inactive

Structure (SMILES): CCCCCn1c(N)nc2cccc(C)c21 [Compound A31d, 7-Methyl-1-pentyl-1H-benzo[d]imidazol-2-amine]
- EC50 [1, 3]: 6.61 µM

Structure (SMILES): CCCCCn1c(NC(C)=O)nc2ccccc21 [Compound A10, N-(1-pentyl-1H-benzo[d]imidazol-2-yl)acetamide]
- hTLR8 Agonistic Activity (EC50) [1, 4]: Inactive
- TLR8-agonistic activity EC50 ([1]; primary screens): completely abrogated activity

Next, values leading:

- TLR7-agonistic potency relative to compound 5 ([2]; fold over compound 5): ~7.6
- EC50 [2]: 0.21 µM
Structure (SMILES): CCCCc1nc2c(N)nc(NCc3ccccc3)cc2n1Cc1ccccc1 [Compound 19f, N^6,1-Dibenzyl-2-butyl-1H-imidazo[4,5-c]pyridine-4,6-diamine]

- EC50 [2]: 0.25 µM
Structure (SMILES): CCCCc1nc2c(N)nc(NCc3ccncc3)cc2n1Cc1ccccc1 [Compound 19l, 1-Benzyl-2-butyl-N^6-(pyridin-4-ylmethyl)-1H-imidazo[4,5-c]pyridine-4,6-diamine]

- hTLR8 Agonistic Activity (EC50) [1, 4]: Inactive
Structure (SMILES): Nc1nc2ccccc2n1Cc1ccccc1 [Compound A8d, 1-Benzyl-1H-benzo[d]imidazol-2-amine]

- EC50 [2]: 1.09 µM
- TLR7-specific agonistic activity EC50 [2]: active
Structure (SMILES): CCCCc1nc2c(N)nc(NCc3ccc(-c4ccccc4)cc3)cc2n1Cc1ccccc1 [Compound 19o, N^6-([1,1′-Biphenyl]-4-ylmethyl)-1-benzyl-2-butyl-1H-imidazo[4,5-c]pyridine-4,6-diamine]

- hTLR8 Agonistic Activity (EC50) [1, 4]: Inactive
- TLR8-agonistic activity EC50 ([1]; primary screens): abrogated activity
Structure (SMILES): CCCCCn1c(N)nc2c(Cc3ccccc3)cccc21 [Compound A31m, 4-benzyl-1-pentyl-1H-benzo[d]imidazol-2-amine]

- EC50 [2]: 1.04 µM
Structure (SMILES): CCCCc1nc2c(N)nc(NCc3ccc(C(F)(F)F)cc3)cc2n1Cc1ccccc1 [Compound 19i, 1-Benzyl-2-butyl-N^6-(4-(trifluoromethyl)benzyl)-1H-imidazo[4,5-c]pyridine-4,6-diamine]

- EC50 [2]: 0.28 µM
- TLR7-specific agonistic activity EC50 [2]: restored
Structure (SMILES): CCCCc1nc2c(N)nc(Cc3ccccc3)cc2n1Cc1ccccc1 [Compound 23g, 1,6-Dibenzyl-2-butyl-1H-imidazo[4,5-c]pyridin-4-amine]

- EC50 [1, 3]: 3.96 µM
Structure (SMILES): CCCCCCn1c(N)nc2ccccc21 [Compound A8c, 1-Hexyl-1H-benzo[d]imidazol-2-amine]

- hTLR8 Agonistic Activity (EC50) [1, 4]: Inactive
- TLR8-agonistic activity EC50 ([1]; primary screens): abrogated activity
Structure (SMILES): CCCCCn1c(N)nc2c(OCc3ccccc3)cccc21 [Compound A35, 4-Benzyloxy-1-pentyl-1H-benzoimidazol-2-ylamine]

- EC50 [1, 5]: 3.23 µM
Structure (SMILES): CCCCCn1c(N)nc2ccccc21 [Compound A8b, 1-Pentyl-1H-benzo[d]imidazol-2-amine]

- hTLR8 Agonistic Activity (EC50) [1, 4]: Inactive
Structure (SMILES): CCCCCn1c(N)nc2cc3ccccc3cc21 [Compound A13, 1-Pentyl-1H-naphtho[2,3-d]imidazol-2-amine]

- hTLR8 Agonistic Activity (EC50) [1, 4]: Inactive
Structure (SMILES): CCCCCn1c(N)nc2ccc3ccccc3c21 [Compound A18, 1-pentyl-1H-naphtho[1,2-d]imidazol-2-amine]

- hTLR8 Agonistic Activity (EC50) [1, 4]: Inactive
- TLR8-agonistic activity EC50 ([1]; primary screens): abrogated activity
Structure (SMILES): CCCCCn1c(N)nc2c(-c3ccccc3)cccc21 [Compound A31l, 1-pentyl-4-phenyl-1H-benzo[d]imidazol-2-amine]

- hTLR8 Agonistic Activity (EC50) [1, 4]: Inactive
Structure (SMILES): NCc1cccc(Cn2c(N)nc3ccccc32)c1 [Compound A8f, 1-(3-(aminomethyl)benzyl)-1H-benzo[d]imidazol-2-amine]

- EC50 [1, 5]: 3.16 µM
Structure (SMILES): CCCCCn1c(N)nc2c3ccccc3ccc21 [Compound A23, 3-Pentyl-3H-naphtho[1,2-d]imidazol-2-amine]
